These results are taken from patent US11723948B2, “Method for treating and prognosing cancer” (INSERM (INSTITUT NATIONAL DE LA SANTE ET DE LA RECHERCHE …, priority 2015, dated 2023).

In test [1] the test system is primary cultured tumor cells (PCTC) from GBM. Kind of test: Collagen-based cell invasion assay. Further details: species or system human. As to conditions: 72 h incubation. The protocol: All of the procedures were followed according to the manufacturer's instructions (QCM 24-Well Collagen-Based Cell Invasion Assay, Millipore, France). In brief, 200 μl serum-free medium containing 2×10^5 cells were seeded into the invasion chamber and placed into the 24 well plate containing 500 μl complete medium. After 72 h incubation at 37° C., media was removed from the chamber, and cells were stained by putting the chamber in staining solution for 20 min at room temperature. Non-invaded cells were carefully removed from the top-side of the chamber. Stained chamber was inserted into a clean well containing 200 μl of extraction buffer for 15 min at room temperature. 100 μl extracted stained solution from the chamber was transferred into the 96 well plate and optical density was measured at 560 nm with a spectrophotometer.

The next test concerns PCTC #1. Kind of test: ELISA of global DNA methylation (5-methylcytosine). The format is cell-based, human. As to conditions: PCTC #1 treated during 30 days. An excerpt:
DNA was extracted by using the QiaAmp DNA mini Kit (Qiagen, France). Next, global DNA methylation was estimated by quantifying the presence of 5-methylcytosine using Methylamp Global DNA methylation Quantification kit (Euromedex-Epigentek, France) according to the manufacturers's instructions.
The analysis of all interactions being impossible, we postulated that if P1 inhibited a large number of DNMT3A/D3A-BP interactions, an hypomethylation phenotype would be observable. To observe the putative P1-induced DNA hypomethylation, PCTC #1 were treated during 30 days with P1 (data not shown). Other DNMT inhibitors (5-aza-2-deoxycytidine (5-aza), theaflavin 3,3 digallate (a DNMT3A inhibitor, hereafter called TFD), or peptides (UP peptide, a peptide inhibiting the DNMT1/PCNA/UHRF1 interactions)) were also used as control conditions.
In general terms: In an ELISA, binding on a coated surface is turned into a signal by an enzyme label.

Test [2] concerns primary cultured tumor cells (PCTC) from GBM. Description: Migration assay, scratch test. Conditions: 24 hours, mitomycin C pre-treatment. The test is classed as cell-based, human. The protocol: Cell migration assay was performed using a scratch technique. Cells were plated in 6-well plates at 80-90%, and were treated with 10 μg/ml mitomycin C (Sigma, France) for 2 hours (in order to remove the influence of cell proliferation). Cells were then scratched. Cell migration was monitored by microscopy. The images acquired for each sample were analyzed quantitatively. For each image, distances between one side of scratch and the other were measured. By comparing the images from time 0 to the last time point (24 hours), we obtain the distance of each scratch closure on the basis of the distances that are measured.
Impact of the P1-induced disruption of the DNMT3A/ISGF3γ interactions on migration capability was next estimated by performing a scratch test assay.

For test [3] the test system is unchanged. Kind of test: Temozolomide+irradiation-induced cell death (trypan blue). The test is classed as cell-based, human. Conditions: temozolomide 25 μM and irradiation 2 Gy. The protocol: Percentages of cell death were evaluated by using a Trypan Blue Stain 0.4%, and the Countess® Automated Cell Counter (Life Technologies, France). Cell death was induced using temozolomide (25 μM) and irradiation (2 Gy) such as previously described.
To evaluate the impact of the P1-induced disruption of the DNMT3A/ISGF3γ interactions on the sensitivity of apoptosis induced by a therapeutic treatment, we measured the percentage of temozolomide+irradiation-induced cell death since temozolomide (TMZ) and irradiation are conjugated in anti-GBM treatment [Cheray M et al., 2013 and Louis D et al., 2007]. […] Thus, we conclude that P1 acts as a sensitizer of the temozolomide+irradiation-induced cell death.

Test [4] has the same test system. Kind of test: Proliferation assay, doubling time. Conditions: counted every 24 h over 120 h. The format is cell-based, human. On the procedure: Doubling time (i.e. the period of time required for a quantity to double in size) was calculated by using the Doubling Time Online Calculator website (Roth V. 2006, http://www.doubling-time.com/compute.php) and counting the proliferation of […] over 120 hours. Cell number was determined, every 24 h over 120 h, using the Countess® Automated Cell Counter (Life Technologies, France).
To estimate the impact of the P1-induced disruption of DNMT3A/ISGF3γ interactions on proliferation, we calculated the doubling time.

The next test concerns ZR-75-1. As to conditions: non-invasive breast cancer cell line ZR-75-1; cited from earlier work.
The test system of the next test is MCF-7 cells. As to conditions: non-invasive breast cancer cell line MCF-7; cited from earlier work.
The target of test [5] is T1, DNMT3A/ISGF3γ interactions (Homo sapiens, UniProt Q00978).
T1 construct: we used a PCTC (named PCTC #1); endogenous in cells; host or cells: PCTC #1 (primary cultured glioblastoma tumor cells)
T1 sequence (Q00978 1-393): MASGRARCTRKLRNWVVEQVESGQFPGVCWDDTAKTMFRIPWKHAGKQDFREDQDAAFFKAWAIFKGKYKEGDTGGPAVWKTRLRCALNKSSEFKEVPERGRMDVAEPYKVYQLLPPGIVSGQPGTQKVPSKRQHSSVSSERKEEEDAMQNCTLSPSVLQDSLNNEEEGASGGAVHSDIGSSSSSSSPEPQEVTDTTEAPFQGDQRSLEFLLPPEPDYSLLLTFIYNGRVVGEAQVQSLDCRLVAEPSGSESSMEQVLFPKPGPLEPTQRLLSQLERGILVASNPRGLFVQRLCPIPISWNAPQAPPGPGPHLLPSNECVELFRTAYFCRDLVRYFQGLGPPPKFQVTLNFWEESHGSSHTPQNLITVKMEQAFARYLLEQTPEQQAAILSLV
Kind of test: Proximity Ligation In Situ Assay (P-LISA) in PCTC #1, DNMT3A/ISGF3γ. The format is cell-based. As to conditions: PCTC #1, P-LISA 12 hr after electroporation of peptide. The protocol: Cells were cultured for 24 h on cover slip. Cells were then fixed with 4% paraformaldehyde in PBS pH7.4 for 15 min at room temperature. Permeabilization is performed with PBS containing 0.5% Triton X-100 for 20 min at room temperature. Blocking, staining, hybridization, ligation, amplification and detection steps were realized according to manufacturer's instructions (Olink Bioscience, Sweden). All incubations were performed in a humidity chamber. Amplification and detection steps were performed in dark room. Fluorescence was visualized by using the Axiovert 200M microscopy system (Zeiss, Le Pecq, France) with ApoTome module (X63 and numerial aperture 1.4). Preparations were mounted by using ProLong Gold antifade reagent with DAPI (Life Technologies, France). Pictures acquisition was realized in structured illumination microscopy. After decovolving (3.5 Huygens Essential software (SVI)), 3D view was obtained by using Amira.4.1.1 program. Finally, the images were analyzed by using the freeware “BlobFinder” available for download from www.cb.uu.se/˜amin/BlobFinder. Thus, we obtained either number of signals per nuclei since nuclei can be automatically identified.
(§1) For electroporation, NLS sequence was added to peptides. […] Electroporation efficiency for each cell line was initially determined by flow cytometry by uptake of the fluorescent dye, lucifer yellow (Sigma, France). […]

Test [6] concerns the target T2, DNMT3A/ISGF3γ interaction (Homo sapiens, UniProt Q00978).
T2 construct: GST
T2 sequence (Q00978 1-393): T1 sequence (Q00978 1-393)
Description: Competitive pull-down assay of the DNMT3A/ISGF3γ interaction. The format is binding. Conditions: for inhibition of the DNMT3A/ISGF3γ interaction: peptides pre-incubated 1 h at 37° C., FIG. 2A. The protocol:
Pull-down assays were performed by using the GST/His Tagged-Protein Interaction Pull-Down Kits (Thermo Scientific, France). Briefly, 100 μg of bait protein were immobilized on column via an incubation at 4° C. for 1 h with gentle mixing. After washing, 1 μg of prey protein was added for 1 h at 4° C. with gentle rocking motion on a rotating platform. After washes and elution, the “bait-prey” interaction was analyzed by SDS-PAGE and Western blot methods. Competitive pull-down experimentations were realized by pre-incubating considered peptides for 1 h at 37° C.
In brief, proteins were size fractionated by sodium dodecyl sulfate-polyacrylamide gel electrophoresis. Proteins were transferred onto nitrocellulose or PVDF membrane. Saturation and blotting were realized by using SNAP I.™ Protein Detection System (Millipore, France). The detection of proteins was performed using ECL™ (Amersham Biosciences, France) and/or SuperSignal west femto Maximum Sensitivity (Thermo Scientific, France) chemilumenescence reagents. The detection of proteins was performed using the FusionX7 Imager (Fisher Scientific, France).

For a further test, the system named is DNMT3A/AP2γ interaction. Description: P-LISA in PCTC #1, DNMT3A/AP2γ. The format is cell-based, human. On the procedure: (§2) Cells were cultured for 24 h on cover slip. Cells were then fixed with 4% paraformaldehyde in PBS pH7.4 for 15 min at room temperature. Permeabilization is performed with PBS containing 0.5% Triton X-100 for 20 min at room temperature. Blocking, staining, hybridization, ligation, amplification and detection steps were realized according to manufacturer's instructions (Olink Bioscience, Sweden). All incubations were performed in a humidity chamber. Amplification and detection steps were performed in dark room. Fluorescence was visualized by using the Axiovert 200M microscopy system (Zeiss, Le Pecq, France) with ApoTome module (X63 and numerial aperture 1.4). Preparations were mounted by using ProLong Gold antifade reagent with DAPI (Life Technologies, France). Pictures acquisition was realized in structured illumination microscopy. […] Finally, the images were analyzed by using the freeware “BlobFinder” available for download from www.cb.uu.se/˜amin/BlobFinder. […]
as §1
(§3) P1 was designed to inhibit the DNMT3A/ISGF3γ interactions. […] To investigate this point, we analyzed the effect of P1 on the DNMT3A/D3A-BP interactions of interest. […]

The subject of test [7] is PCTC-GBM glioma cells having high level of DNMT3A/ISGF3γ interactions. Description: Established subcutaneous glioma tumors in swiss nude mice. The test is classed as in vivo. As to conditions: treatment from tumor volume 100 mm^3, after 3 weeks of treatment; FIG. 3B. The protocol: A. Design of the experiment. […] Then, mice were treated with indicated treatment. D: day, w: week, it: intra-tumoral, ip: Intraperitoneal.
B. Graph illustrates the impact of the 4 considered treatments on tumor weight of established tumors. Open circles represent mice. Black circles represent the average±standard deviation obtained for each treatment. p values were obtained by performing a t test.
Cultured cells were harvested by trypsinization, washed and resuspended in saline buffer. Cell suspensions were injected s.c. as 2.106 cells in 0.05 ml of PBS with equal volume of matrigel matrix (Becton Dickinson, France) in the flank of 7/8-week-old Nude NMRI-nu female mice (Janvier, France). After tumor establishment, mice were treated with temozolomide and/or peptides via intra-tumor injection (it). To obtain tumor weigh, each tumor was surgically removed and is weighed. All experimental procedures using animals were realized in accordance with the guidelines of Institutional Animal Care and the French National Committee of Ethics.
Standard anti-GBM treatment using temozolomide as chemotherapeutic agent, we next investigated the effect of a treatment associating P1 peptide with TMZ in a swiss nude mice model of established tumors.

The target of a further test is T3, DNMT3A/GATA1 interaction (Homo sapiens, UniProt P15976).
T3 construct: endogenous in cells; host or cells: PCTC #1 (primary cultured glioblastoma tumor cells)
T3 sequence (P15976 whole entry): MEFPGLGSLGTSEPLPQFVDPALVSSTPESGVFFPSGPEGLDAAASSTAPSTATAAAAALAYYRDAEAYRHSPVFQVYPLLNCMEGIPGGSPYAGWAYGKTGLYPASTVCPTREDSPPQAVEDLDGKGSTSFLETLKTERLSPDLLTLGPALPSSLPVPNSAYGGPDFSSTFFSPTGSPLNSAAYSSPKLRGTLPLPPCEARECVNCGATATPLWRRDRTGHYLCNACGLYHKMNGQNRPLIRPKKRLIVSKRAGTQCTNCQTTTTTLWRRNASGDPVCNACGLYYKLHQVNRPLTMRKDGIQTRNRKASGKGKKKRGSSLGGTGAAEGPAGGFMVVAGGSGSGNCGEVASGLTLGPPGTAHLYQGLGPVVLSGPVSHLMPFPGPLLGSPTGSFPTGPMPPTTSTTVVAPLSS
Description: P-LISA in PCTC #1, DNMT3A/GATA1. The format is cell-based. On the procedure: as §2, §1, §3

The next test concerns the target T4, DNMT3A/HDAC1 interaction (Homo sapiens, UniProt Q13547).
T4 construct: endogenous in cells; host or cells: PCTC #1 (primary cultured glioblastoma tumor cells)
Description: P-LISA in PCTC #1, DNMT3A/HDAC1. The format is cell-based. On the procedure: as §2, §1, §3

For the next test, the system named is MGMT. Kind of test: qMSP of MGMT methylation. The test is classed as cell-based, human. As to conditions: cells treated with peptide. The text has this:
In glioma, MGMT methylation is associated with a good responsive of anti-glioma treatment including TMZ and irradiation [Esteller M et al., 2000 and Hegi M et al., 2005].

T4 sequence (Q13547 whole entry): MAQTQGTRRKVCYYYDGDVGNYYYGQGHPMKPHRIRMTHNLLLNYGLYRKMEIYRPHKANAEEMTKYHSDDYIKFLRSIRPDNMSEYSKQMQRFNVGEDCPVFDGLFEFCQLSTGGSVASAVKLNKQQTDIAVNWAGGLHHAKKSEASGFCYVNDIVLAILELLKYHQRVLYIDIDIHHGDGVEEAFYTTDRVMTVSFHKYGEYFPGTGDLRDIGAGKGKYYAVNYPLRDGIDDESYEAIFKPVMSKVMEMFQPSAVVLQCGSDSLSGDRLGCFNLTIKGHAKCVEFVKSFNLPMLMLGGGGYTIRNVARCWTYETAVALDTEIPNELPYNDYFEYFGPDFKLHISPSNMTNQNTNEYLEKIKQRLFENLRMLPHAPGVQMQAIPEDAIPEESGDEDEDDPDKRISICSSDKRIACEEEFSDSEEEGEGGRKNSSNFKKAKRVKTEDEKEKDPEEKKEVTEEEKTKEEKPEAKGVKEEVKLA

Take `O=C(O[C@@H]1Cc2c(O)cc(O)cc2O[C@@H]1c1cc(O)c(=O)c2c(O)c(O)cc([C@H]3Oc4cc(O)cc(O)c4C[C@H]3OC(=O)c3cc(O)c(O)c(O)c3)c2c1)c1cc(O)c(O)c(O)c1` [TFD, theaflavin 3,3 digallate, reference compound]: in test [1], the cell invasion entry is listed as “promoted the cell invasion”. Further, in the test with PCTC #1, the “global level of 5-methylcytosine” value was “decreased the global level of DNA methylation”. The cell migration result in test [2] was “had no effect on cell migration”. The “percentage of temozolomide+irradiation-induced cell death” value in test [3] is on record as “increased”. Further, the “doubling time of cells” value in test [4] is “no effect”.

Take `Nc1ncn([C@H]2C[C@H](O)[C@@H](CO)O2)c(=O)n1` [5-aza, 5-aza-2-deoxycytidine]: the invasiveness result in the test on ZR-75-1 and in the test on MCF-7 cells was “increased the invasiveness” in each case. Besides, the “global level of 5-methylcytosine” value in the test with PCTC #1 is “decreased the global level of DNA methylation”.

On to RPMPRLTFQAGDPYYI (Synthetic P1), for which the “red dots representing the DNMT3A/ISGF3γ interactions” value in [5] is “decreased”. Also, the “DNMT3A/ISGF3γ interaction with increasing peptide concentration” value in [6] (increasing concentration of peptide, FIG. 2B) is “decreased”. The “inhibition of the DNMT3A/ISGF3γ interaction” value in test [6] was “inhibited the DNMT3A/ISGF3γ interaction”. For the same compound, the “integrity of the DNMT3A/AP2γ interaction” value with DNMT3A/AP2γ interaction is on record as “no effect”. Also, the cell invasion result in test [1] is reported as “unmodified the cell invasion characteristic”. In the test on PCTC #1, the “global level of 5-methylcytosine” value is reported as “had not effect”. In addition, the cell migration result in test [2] was “decreased cell migration”. Further, the “percentage of temozolomide+irradiation-induced cell death” value in test [3] is “increased”. Also, in [3] (P1 versus TDF), the “percentage of cell death compared with the other treatment” value is “higher than the one obtained with TDF”. Besides, the “tumor growth (tumor weight/volume) of established tumors” value in test [7] is reported as “no statistical difference”. In the test with DNMT3A/GATA1 interaction, the “integrity of the DNMT3A/GATA1 interaction” value was “no effect”. In addition, the “integrity of the DNMT3A/HDAC1 interaction” value with DNMT3A/HDAC1 interaction is “no effect”. Besides, the “methylation level of MGMT” value with MGMT is “remains unchanged”. For the same compound, the “doubling time of cells” value in [4] is reported as “no effect”.

With “RPMPRLTAQAGAPYYI (Synthetic P1mut) [P1^mut, mutated P1 peptide, reference compound]”, the “inhibition of the DNMT3A/ISGF3γ interaction” value in test [6] is listed as “does not inhibit the DNMT3A/ISGF3γ interaction”.
